Measured values: PubChem BioAssay AID330 (DTP/NCI, 2004)
Values joined by “and” are separate entries in the source; they are usually repeats but may differ in a detail not shown here. Identical values can stand only once. Toxic doses and inconclusive results are not listed. Rule for the calls: active = survival T/C of 150% or more; inactive = T/C below 125% in these data.

Tested on: P388 leukemia ip, CD2F1 mice, survival T/C
Assay: NCI In Vivo Anticancer Drug Screen. Data for tumor model P388 Leukemia (intraperitoneal) in CD2F1 (CDF1) mice
Details: endpoint: median survival time, higher = longer survival
In short: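 Mice carrying the transplanted tumor received test compound or vehicle. Survival was recorded in each group, and the value is the treated-group measurement divided by that of the vehicle-treated control group.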

[1] = dose: 2.5 mg/kg/injection, schedule: Q04DX003 (ip), vehicle: saline
[2] = dose: 5.0 mg/kg/injection, schedule: Q04DX003 (ip), vehicle: saline
[3] = dose: 10.0 mg/kg/injection, schedule: Q04DX003 (ip), vehicle: saline
[4] = dose: 50.0 mg/kg/injection, schedule: Q01DX005 (ip), vehicle: Klucel (hydroxypropylcellulose) (HPC)
[5] = dose: 100.0 mg/kg/injection, schedule: Q01DX005 (ip), vehicle: Klucel (hydroxypropylcellulose) (HPC)
[6] = dose: 200.0 mg/kg/injection, schedule: Q01DX005 (ip), vehicle: Klucel (hydroxypropylcellulose) (HPC)
[7] = dose: 60.0 mg/kg/injection, schedule: Q01DX005 (ip), vehicle: saline with Tween-80
[8] = dose: 120.0 mg/kg/injection, schedule: Q01DX005 (ip), vehicle: saline with Tween-80
[9] = dose: 240.0 mg/kg/injection, schedule: Q01DX005 (ip), vehicle: saline with Tween-80
[10] = dose: 30.0 mg/kg/injection, schedule: Q01DX005 (ip), vehicle: Klucel (hydroxypropylcellulose) (HPC)
[11] = dose: 50.0 mg/kg/injection, schedule: Q01DX005 (ip), vehicle: saline with Tween-80
[12] = dose: 100.0 mg/kg/injection, schedule: Q01DX005 (ip), vehicle: saline with Tween-80
[13] = dose: 200.0 mg/kg/injection, schedule: Q01DX005 (ip), vehicle: saline with Tween-80
[14] = dose: 50.0 mg/kg/injection, schedule: Q01DX009 (ip), vehicle: Klucel (hydroxypropylcellulose) (HPC)
[15] = dose: 100.0 mg/kg/injection, schedule: Q01DX009 (ip), vehicle: Klucel (hydroxypropylcellulose) (HPC)
[16] = dose: 60.0 mg/kg/injection, schedule: Q01DX005 (ip), vehicle: Klucel (hydroxypropylcellulose) (HPC)
[17] = dose: 120.0 mg/kg/injection, schedule: Q01DX005 (ip), vehicle: Klucel (hydroxypropylcellulose) (HPC)
[18] = dose: 240.0 mg/kg/injection, schedule: Q01DX005 (ip), vehicle: Klucel (hydroxypropylcellulose) (HPC)

Measured: T/C

FC(F)(F)S.[Hg]
inactive: [1] 95 % of control | [2] 100 % of control | [3] 95 % of control

CCN1C(=O)NC(=O)C(CC)(N2CCCCC2)C1=O (stereo unspecified)
inactive: [4] 111 % of control | [5] 98 % of control | [6] 104 % of control

CN(C)CCC(OC(=O)c1ccccc1Cl)c1ccccc1 (stereo unspecified)
inactive: dose: 25.0 mg/kg/injection, schedule: Q01DX009 (ip), vehicle: saline 99 % of control and 100 % of control and 101 % of control | dose: 50.0 mg/kg/injection, schedule: Q01DX009 (ip), vehicle: saline 101 % of control and 107 % of control and 117 % of control | dose: 100.0 mg/kg/injection, schedule: Q01DX009 (ip), vehicle: saline 108 % of control and 116 % of control

C=CCN(CC=C)C(=O)CCN1CC1
inactive: [1] 108 % of control | [2] 87 % of control | [3] 104 % of control

O=C1NC(=O)C2C3CCC(O3)C12 (stereo unspecified)
inactive: dose: 50.0 mg/kg/injection, schedule: Q01DX005 (ip), vehicle: saline 106 % of control and 99 % of control | [7] 94 % of control | dose: 60.0 mg/kg/injection, schedule: Q01DX005 (ip), vehicle: saline 101 % of control | dose: 100.0 mg/kg/injection, schedule: Q01DX005 (ip), vehicle: saline 106 % of control and 98 % of control | [8] 100 % of control | dose: 120.0 mg/kg/injection, schedule: Q01DX005 (ip), vehicle: saline 102 % of control | [9] 106 % of control | dose: 240.0 mg/kg/injection, schedule: Q01DX005 (ip), vehicle: saline 92 % of control

Oc1c(Cl)cc(C(c2cc(Cl)c(O)c(Cl)c2)C(c2cc(Cl)c(O)c(Cl)c2)c2cc(Cl)c(O)c(Cl)c2)cc1Cl
inactive: dose: 100.0 mg/kg/injection, schedule: Q04DX003 (ip), vehicle: Klucel (hydroxypropylcellulose) (HPC) 115 % of control

CN(C)c1ncnc2c1ncn2[C@H]1CCC[C@@H]1O
inactive: dose: 0.37 mg/kg/injection, schedule: Q01DX005 (ip), vehicle: Klucel (hydroxypropylcellulose) (HPC) 109 % of control | dose: 0.75 mg/kg/injection, schedule: Q01DX005 (ip), vehicle: Klucel (hydroxypropylcellulose) (HPC) 110 % of control | dose: 1.5 mg/kg/injection, schedule: Q01DX005 (ip), vehicle: Klucel (hydroxypropylcellulose) (HPC) 112 % of control and 116 % of control

O=C1c2ccccc2C(=O)c2c(Nc3cccc(S(=O)(=O)N(CCO)CCO)c3)ccc(O)c21
inactive: dose: 25.0 mg/kg/injection, schedule: Q04DX002 (ip), vehicle: saline with Tween-80 99 % of control | dose: 50.0 mg/kg/injection, schedule: Q04DX002 (ip), vehicle: saline with Tween-80 93 % of control | dose: 100.0 mg/kg/injection, schedule: Q04DX002 (ip), vehicle: saline with Tween-80 92 % of control | dose: 200.0 mg/kg/injection, schedule: Q04DX002 (ip), vehicle: saline with Tween-80 93 % of control

COc1cccc2c1C(=O)c1c(O)c3c(c(O)c1C2=O)CC(O)(C(=O)CO)CC3OC1CC(N(Cc2ccccc2)Cc2ccccc2)C(O)C(C)O1 (stereo unspecified)
inactive: dose: 0.2 mg/kg/injection, schedule: Q01DX009 (ip), vehicle: water 115 % of control
active: dose: 1.56 mg/kg/injection, schedule: Q01DX009 (ip), vehicle: water 151 % of control | dose: 3.13 mg/kg/injection, schedule: Q01DX009 (ip), vehicle: water 156 % of control | dose: 6.25 mg/kg/injection, schedule: Q01DX009 (ip), vehicle: water 175 % of control

Cc1ccc(F)cc1NC(=S)NN
inactive: dose: 7.5 mg/kg/injection, schedule: Q01DX005 (ip), vehicle: Klucel (hydroxypropylcellulose) (HPC) 100 % of control | dose: 15.0 mg/kg/injection, schedule: Q01DX005 (ip), vehicle: Klucel (hydroxypropylcellulose) (HPC) 99 % of control | [10] 91 % of control

c1ccc(C23CC2COP3(c2ccccc2)(c2ccccc2)c2ccccc2)cc1 (stereo unspecified)
inactive: dose: 6.25 mg/kg/injection, schedule: Q01DX009 (ip), vehicle: suspension in saline 90 % of control | dose: 12.5 mg/kg/injection, schedule: Q01DX009 (ip), vehicle: suspension in saline 98 % of control | dose: 25.0 mg/kg/injection, schedule: Q01DX009 (ip), vehicle: suspension in saline 93 % of control

Cc1ccc(C2OC2(C(=O)C=[N+]=[N-])c2ccccc2)cc1 (stereo unspecified)
inactive: dose: 25.0 mg/kg/injection, schedule: Q01DX005 (ip), vehicle: saline with Tween-80 89 % of control | [11] 92 % of control | [12] 86 % of control | [13] 91 % of control

N#CC(=Nc1ccc2ccccc2c1)C1=C(O)c2ccccc2C1=O
inactive: [4] 101 % of control | [5] 101 % of control | [6] 110 % of control

Cc1ccc(C(=O)CS(=O)(=O)c2ccc(C)cc2)cc1
inactive: [14] 101 % of control | [15] 98 % of control | dose: 200.0 mg/kg/injection, schedule: Q01DX009 (ip), vehicle: Klucel (hydroxypropylcellulose) (HPC) 96 % of control

CCO/C=C1/N=C(c2cc([N+](=O)[O-])cc([N+](=O)[O-])c2C)OC1=O
inactive: dose: 60.0 mg/kg/injection, schedule: Q01DX005 (ip), vehicle: saline + Tween-80 + alcohol 93 % of control | dose: 120.0 mg/kg/injection, schedule: Q01DX005 (ip), vehicle: saline + Tween-80 + alcohol 94 % of control | dose: 240.0 mg/kg/injection, schedule: Q01DX005 (ip), vehicle: saline + Tween-80 + alcohol 88 % of control

S=C(NCNC(=S)c1ccncc1)c1ccncc1
inactive: [11] 100 % of control and 111 % of control | [12] 108 % of control and 120 % of control | [13] 104 % of control

COc1ccccc1C1OC2=Nc3cc(C)c(C)cc3NC2C1=O (stereo unspecified)
inactive: [10] 96 % of control | [16] 93 % of control | [17] 90 % of control | [18] 95 % of control

CC(=Nc1ccc(F)cc1)C1C(=O)c2ccccc2C1=O
inactive: [4] 100 % of control | [5] 100 % of control | [6] 100 % of control

Cc1ccccc1NCN1C(=O)S/C(=C2\C(=O)N(C)c3ccc(Br)cc32)C1=O
inactive: [4] 95 % of control | [5] 92 % of control | [6] 90 % of control

COc1cccc2c1C(=O)c1c(O)c3c(c(O)c1C2=O)C[C@@](O)(C(C)O)C[C@@H]3OC1CC(N2CCOCC2C#N)C(O)C(C)O1 (stereo partly specified)
inactive: dose: 0.03 mg/kg/injection, schedule: Q04DX003 (ip), vehicle: water 120 % of control | dose: 12.5 micrograms/kg/injection, schedule: Q04DX003 (ip), vehicle: water 107 % of control | dose: 25.0 micrograms/kg/injection, schedule: Q04DX003 (ip), vehicle: water 101 % of control | dose: 50.0 micrograms/kg/injection, schedule: Q04DX003 (ip), vehicle: water 106 % of control | dose: 100.0 micrograms/kg/injection, schedule: Q04DX003 (ip), vehicle: water 120 % of control
active: dose: 0.1 mg/kg/injection, schedule: Q04DX003 (ip), vehicle: water 166 % of control

CN(C)[C@@H]1C(=O)C(C(=O)NCN2CCCCC2)=C(O)[C@@]2(O)C(=O)C3=C(O)c4c(O)cccc4[C@@](C)(O)[C@H]3C[C@@H]12
inactive: [11] 95 % of control | [12] 95 % of control | [13] 104 % of control

Sc1nc2ccccc2s1.Sc1nc2ccccc2s1.Sc1nc2ccccc2s1.Sc1nc2ccccc2s1.[Cl][Rh][Cl]
inactive: dose: 50.0 mg/kg/injection, schedule: Q01DX009 (ip), vehicle: saline with Tween-80 93 % of control | dose: 100.0 mg/kg/injection, schedule: Q01DX009 (ip), vehicle: saline with Tween-80 101 % of control | dose: 200.0 mg/kg/injection, schedule: Q01DX009 (ip), vehicle: saline with Tween-80 101 % of control

COc1ccc(C(=O)C(=O)c2ccc(OC)cc2)cc1
inactive: [16] 99 % of control | [17] 98 % of control | [18] 100 % of control

CCCCN(CCCC)C(Cl)=Nc1ccccc1
inactive: dose: 25.0 mg/kg/injection, schedule: Q01DX009 (ip), vehicle: Klucel (hydroxypropylcellulose) (HPC) 119 % of control | [14] 120 % of control | [15] 112 % of control

[Br][Sn]([Br])([CH2][Sn]([Br])([c]1ccccc1)[c]1ccccc1)[c]1ccccc1
inactive: dose: 12.5 mg/kg/injection, schedule: Q01DX005 (ip), vehicle: Klucel (hydroxypropylcellulose) (HPC) 124 % of control

COC(=O)Cc1onc(-c2ccccc2)c1[N+](=O)[O-]
inactive: [7] 101 % of control | [8] 101 % of control | [9] 94 % of control
